From ChEMBL document CHEMBL1201862, “PubChem BioAssay data set” (2004)
Activity calls are given as the source filed them.

What was measured:
[1] = molecular target: T1, Corticotropin-releasing factor receptor 2/Corticotropin-releasing factor-binding protein (Homo sapiens, UniProt P24387+Q13324); test: Dose Response confirmation of uHTS hits for small molecule antagonists of the CRF-binding protein and CRF-R2 receptor complex.; assay type: functional; details: read-out: IC50_Mean
T1 sequence (Q13324 whole entry): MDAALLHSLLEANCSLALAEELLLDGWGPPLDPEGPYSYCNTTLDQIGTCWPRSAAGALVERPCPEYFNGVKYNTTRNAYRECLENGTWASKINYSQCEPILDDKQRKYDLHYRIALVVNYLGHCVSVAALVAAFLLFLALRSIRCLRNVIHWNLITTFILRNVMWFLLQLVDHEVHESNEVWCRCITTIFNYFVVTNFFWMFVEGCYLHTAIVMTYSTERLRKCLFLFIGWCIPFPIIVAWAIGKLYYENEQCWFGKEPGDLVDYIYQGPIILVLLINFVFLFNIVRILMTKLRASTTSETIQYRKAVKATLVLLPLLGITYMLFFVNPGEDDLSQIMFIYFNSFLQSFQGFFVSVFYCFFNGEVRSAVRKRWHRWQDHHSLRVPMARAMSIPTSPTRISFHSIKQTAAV
T1 sequence (P24387 whole entry): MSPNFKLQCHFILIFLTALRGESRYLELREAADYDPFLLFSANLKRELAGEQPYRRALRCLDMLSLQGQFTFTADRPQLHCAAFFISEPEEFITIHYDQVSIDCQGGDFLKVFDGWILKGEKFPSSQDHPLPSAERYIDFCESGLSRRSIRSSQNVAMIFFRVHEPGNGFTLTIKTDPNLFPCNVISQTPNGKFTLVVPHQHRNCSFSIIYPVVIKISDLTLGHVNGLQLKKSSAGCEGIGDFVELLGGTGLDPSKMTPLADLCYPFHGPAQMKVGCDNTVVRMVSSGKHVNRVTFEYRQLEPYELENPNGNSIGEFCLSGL

[2] = molecular target: T1, Corticotropin-releasing factor receptor 2/Corticotropin-releasing factor-binding protein; test: activators of CRF receptor 2 with binding protein – uHTS hits, confirmation (AID 602473); assay type: functional; details: read-out: EC50_Mean
Large T antigen = Large T antigen (Simian virus 40, UniProt P03070); assay type: functional, Betapolyomavirus macacae;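 also: Confirmatory-stage PubChem screen for compounds that inhibit SV40 T antigen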
Sequence of Large T antigen (P03070 whole entry): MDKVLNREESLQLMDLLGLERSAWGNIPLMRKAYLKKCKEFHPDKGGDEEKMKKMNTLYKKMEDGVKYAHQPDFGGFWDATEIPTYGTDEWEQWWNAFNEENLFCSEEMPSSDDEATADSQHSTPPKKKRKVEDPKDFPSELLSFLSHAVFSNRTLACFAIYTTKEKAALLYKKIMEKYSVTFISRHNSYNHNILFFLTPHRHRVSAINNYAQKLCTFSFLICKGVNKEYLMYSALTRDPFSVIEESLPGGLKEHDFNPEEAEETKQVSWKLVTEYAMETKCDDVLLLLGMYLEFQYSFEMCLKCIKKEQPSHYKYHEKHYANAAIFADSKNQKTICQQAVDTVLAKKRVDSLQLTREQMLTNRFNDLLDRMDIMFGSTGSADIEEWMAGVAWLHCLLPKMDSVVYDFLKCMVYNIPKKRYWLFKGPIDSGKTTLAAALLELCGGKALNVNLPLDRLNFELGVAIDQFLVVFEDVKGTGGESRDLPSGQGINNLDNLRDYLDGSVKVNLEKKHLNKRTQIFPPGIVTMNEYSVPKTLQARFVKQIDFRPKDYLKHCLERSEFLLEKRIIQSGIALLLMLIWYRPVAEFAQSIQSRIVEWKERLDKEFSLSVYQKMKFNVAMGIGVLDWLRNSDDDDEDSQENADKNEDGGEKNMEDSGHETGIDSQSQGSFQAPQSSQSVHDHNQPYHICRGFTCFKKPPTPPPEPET

Prothrombin = Prothrombin (Homo sapiens, UniProt P00734); test: Thrombin 1536 HTS Dose Response Confirmation. [Related pubchem assays: 1046 (Thrombin 1536 HTS; hits were confirmed in this assay)]; assay type: functional
SUMO-activating enzyme [3] = molecular target: T2, SUMO-activating enzyme (Homo sapiens, UniProt Q9UBT2); test: inhibitors of in vitro SUMOylation cascade, primary screen, biochemical, HTRF, uHTS (AID 2006); assay type: protein-complex assay
T2 sequence (Q9UBE0 whole entry): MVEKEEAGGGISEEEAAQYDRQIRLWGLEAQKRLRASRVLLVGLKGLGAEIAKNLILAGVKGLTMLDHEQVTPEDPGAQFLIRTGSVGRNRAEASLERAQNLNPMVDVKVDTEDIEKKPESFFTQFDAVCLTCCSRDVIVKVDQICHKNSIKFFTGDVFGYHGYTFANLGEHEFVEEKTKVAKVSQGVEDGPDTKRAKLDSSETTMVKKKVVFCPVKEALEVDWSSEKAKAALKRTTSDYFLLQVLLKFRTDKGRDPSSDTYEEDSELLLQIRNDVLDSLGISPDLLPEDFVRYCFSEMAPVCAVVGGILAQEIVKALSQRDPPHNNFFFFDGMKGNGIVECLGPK
T2 sequence (Q9UBT2 whole entry): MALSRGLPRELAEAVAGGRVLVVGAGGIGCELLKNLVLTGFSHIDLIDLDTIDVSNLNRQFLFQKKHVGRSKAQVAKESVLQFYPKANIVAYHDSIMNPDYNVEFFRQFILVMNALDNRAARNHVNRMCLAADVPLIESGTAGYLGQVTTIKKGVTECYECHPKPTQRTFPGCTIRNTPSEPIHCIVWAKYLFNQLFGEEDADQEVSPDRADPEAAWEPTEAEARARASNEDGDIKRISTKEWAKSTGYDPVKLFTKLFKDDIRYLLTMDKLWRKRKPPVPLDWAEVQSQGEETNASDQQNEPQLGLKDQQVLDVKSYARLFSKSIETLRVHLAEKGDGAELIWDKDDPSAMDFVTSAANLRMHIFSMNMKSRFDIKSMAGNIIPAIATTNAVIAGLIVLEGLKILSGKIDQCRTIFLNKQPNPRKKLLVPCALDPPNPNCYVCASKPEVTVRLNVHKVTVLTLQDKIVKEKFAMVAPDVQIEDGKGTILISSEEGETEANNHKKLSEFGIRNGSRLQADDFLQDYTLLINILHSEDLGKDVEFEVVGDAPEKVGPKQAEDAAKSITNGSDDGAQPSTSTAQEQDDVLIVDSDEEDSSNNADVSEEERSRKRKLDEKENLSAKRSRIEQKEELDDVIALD

[4] = molecular target: T3, Voltage-gated N-type calcium channel alpha-1B subunit/Amyloid beta A4 precursor protein-binding family A member 1 (Homo sapiens, UniProt Q00975+Q02410); assay type: protein assay
T3 sequence (Q00975 whole entry): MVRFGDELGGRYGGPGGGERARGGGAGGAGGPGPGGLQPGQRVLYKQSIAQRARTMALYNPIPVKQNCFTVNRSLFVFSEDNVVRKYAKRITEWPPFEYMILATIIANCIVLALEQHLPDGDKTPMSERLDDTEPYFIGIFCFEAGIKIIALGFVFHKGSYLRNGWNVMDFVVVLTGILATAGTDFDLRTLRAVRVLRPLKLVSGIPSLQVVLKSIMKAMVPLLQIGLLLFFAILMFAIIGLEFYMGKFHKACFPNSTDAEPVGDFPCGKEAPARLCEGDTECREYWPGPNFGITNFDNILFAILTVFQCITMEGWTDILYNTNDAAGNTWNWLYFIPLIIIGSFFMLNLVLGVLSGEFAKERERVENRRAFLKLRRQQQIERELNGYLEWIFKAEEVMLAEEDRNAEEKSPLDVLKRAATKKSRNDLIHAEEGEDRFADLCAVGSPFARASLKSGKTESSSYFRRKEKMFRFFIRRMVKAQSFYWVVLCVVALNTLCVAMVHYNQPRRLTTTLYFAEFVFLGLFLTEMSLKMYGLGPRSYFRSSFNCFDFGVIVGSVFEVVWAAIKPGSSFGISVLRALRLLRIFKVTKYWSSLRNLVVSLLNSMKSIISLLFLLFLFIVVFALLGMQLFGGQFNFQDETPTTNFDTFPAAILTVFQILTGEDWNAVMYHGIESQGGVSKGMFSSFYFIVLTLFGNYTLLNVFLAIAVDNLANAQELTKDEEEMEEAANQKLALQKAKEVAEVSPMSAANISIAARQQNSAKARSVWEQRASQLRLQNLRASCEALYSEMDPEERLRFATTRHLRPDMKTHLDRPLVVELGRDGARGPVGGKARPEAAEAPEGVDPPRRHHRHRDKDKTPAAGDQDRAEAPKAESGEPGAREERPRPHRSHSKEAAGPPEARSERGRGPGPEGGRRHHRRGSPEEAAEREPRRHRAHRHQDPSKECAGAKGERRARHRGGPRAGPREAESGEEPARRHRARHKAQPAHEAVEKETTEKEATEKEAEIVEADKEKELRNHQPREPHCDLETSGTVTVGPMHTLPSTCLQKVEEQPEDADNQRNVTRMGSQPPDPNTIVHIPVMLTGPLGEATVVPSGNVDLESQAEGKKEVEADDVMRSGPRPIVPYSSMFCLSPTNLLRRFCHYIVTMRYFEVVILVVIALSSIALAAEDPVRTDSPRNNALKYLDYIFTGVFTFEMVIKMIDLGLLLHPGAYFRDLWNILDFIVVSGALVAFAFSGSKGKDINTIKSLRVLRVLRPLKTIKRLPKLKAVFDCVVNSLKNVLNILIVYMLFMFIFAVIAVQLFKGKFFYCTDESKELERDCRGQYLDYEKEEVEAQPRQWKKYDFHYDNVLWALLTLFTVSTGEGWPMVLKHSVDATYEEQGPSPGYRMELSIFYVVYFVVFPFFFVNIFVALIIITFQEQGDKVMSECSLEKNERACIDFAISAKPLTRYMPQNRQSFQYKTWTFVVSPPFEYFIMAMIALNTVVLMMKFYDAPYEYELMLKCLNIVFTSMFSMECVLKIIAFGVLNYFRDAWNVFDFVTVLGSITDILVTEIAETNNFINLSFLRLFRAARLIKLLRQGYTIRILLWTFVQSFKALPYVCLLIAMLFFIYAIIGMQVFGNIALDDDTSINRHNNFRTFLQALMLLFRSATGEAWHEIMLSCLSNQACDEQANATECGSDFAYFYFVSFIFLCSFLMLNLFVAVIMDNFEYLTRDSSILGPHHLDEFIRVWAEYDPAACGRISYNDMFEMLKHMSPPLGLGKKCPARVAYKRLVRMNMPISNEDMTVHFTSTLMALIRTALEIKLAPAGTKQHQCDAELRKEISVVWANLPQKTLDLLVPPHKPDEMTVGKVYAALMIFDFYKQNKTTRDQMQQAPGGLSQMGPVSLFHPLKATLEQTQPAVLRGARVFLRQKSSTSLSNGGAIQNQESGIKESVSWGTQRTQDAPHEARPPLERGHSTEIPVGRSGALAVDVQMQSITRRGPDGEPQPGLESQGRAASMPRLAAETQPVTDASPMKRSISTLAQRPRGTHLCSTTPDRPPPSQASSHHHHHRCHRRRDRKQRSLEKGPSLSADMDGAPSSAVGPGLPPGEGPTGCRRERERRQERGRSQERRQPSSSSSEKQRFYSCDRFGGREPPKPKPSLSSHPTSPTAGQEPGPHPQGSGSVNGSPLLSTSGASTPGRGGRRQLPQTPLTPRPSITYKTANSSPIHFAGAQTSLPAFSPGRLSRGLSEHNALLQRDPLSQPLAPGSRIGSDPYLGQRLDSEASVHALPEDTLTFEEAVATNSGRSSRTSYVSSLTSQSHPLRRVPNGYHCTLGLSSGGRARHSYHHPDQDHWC
T3 sequence (Q02410 whole entry): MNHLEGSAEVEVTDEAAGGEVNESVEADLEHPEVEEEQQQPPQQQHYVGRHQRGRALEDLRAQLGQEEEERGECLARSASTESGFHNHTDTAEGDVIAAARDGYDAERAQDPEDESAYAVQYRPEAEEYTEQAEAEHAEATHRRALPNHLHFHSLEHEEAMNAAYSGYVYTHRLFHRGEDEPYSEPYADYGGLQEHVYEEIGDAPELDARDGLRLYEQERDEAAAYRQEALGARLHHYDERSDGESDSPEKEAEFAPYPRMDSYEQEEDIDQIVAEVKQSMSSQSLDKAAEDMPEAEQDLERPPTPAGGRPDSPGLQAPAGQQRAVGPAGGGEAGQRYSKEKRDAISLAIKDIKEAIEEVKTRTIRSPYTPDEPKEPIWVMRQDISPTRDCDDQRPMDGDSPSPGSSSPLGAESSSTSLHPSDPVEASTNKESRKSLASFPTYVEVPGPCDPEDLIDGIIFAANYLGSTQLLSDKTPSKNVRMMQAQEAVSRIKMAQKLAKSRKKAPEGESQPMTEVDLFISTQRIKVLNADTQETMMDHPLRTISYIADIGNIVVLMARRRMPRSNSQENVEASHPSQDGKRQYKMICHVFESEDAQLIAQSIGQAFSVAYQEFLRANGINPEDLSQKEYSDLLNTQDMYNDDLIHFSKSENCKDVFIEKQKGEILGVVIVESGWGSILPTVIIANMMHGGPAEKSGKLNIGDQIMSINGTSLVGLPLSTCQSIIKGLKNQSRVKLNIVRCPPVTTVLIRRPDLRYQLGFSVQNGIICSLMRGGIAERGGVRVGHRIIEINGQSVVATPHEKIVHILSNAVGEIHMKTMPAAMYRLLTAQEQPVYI

[5] = molecular target: T3, Voltage-gated N-type calcium channel alpha-1B subunit/Amyloid beta A4 precursor protein-binding family A member 1; assay type: protein assay; remark: listed apart in the source
SUMO-activating enzyme [6] = molecular target: T2, SUMO-activating enzyme; test: SUMOylation inhibitor hit validation, confirmation, SUMOylation inhibitor project, biochemical, AlphaScreen (AID 2018); assay type: functional
Nonstructural protein 1 = Nonstructural protein 1 (Influenza A virus, UniProt Q194T2); assay type: functional, Influenza A virus (A/California/07/2009(H1N1))
Sequence of Nonstructural protein 1 (Q194T2 whole entry): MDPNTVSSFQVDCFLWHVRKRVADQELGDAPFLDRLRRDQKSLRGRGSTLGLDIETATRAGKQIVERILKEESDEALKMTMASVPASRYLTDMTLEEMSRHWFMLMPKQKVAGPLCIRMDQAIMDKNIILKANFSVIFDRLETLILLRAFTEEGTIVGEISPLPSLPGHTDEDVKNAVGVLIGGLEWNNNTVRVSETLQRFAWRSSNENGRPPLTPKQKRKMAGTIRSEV

P388/ADR = test: cells; assay type: functional; details: Mus musculus
SN12K1 = test: cells; assay type: functional; details: Homo sapiens
P388 = test: cells; assay type: functional; details: Mus musculus
[7] = molecular target: DNA dC->dU-editing enzyme APOBEC-3G (Homo sapiens, UniProt Q9HC16); test: Dose Response confirmation of small molecule APOBEC3G DNA Deaminase Inhibitors via a fluorescence-based single-stranded DNA deaminase assay. [Related pubchem assays (depositor defined):AID493012, AID493028]; assay type: functional
INS1 = test: beta cell apoptosis inhibitors, cytokine rescue, dose response, luminescence, retest (AID 449756); assay type: functional, cell-based; details: Rattus norvegicus;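 also: cell death triggered by IL-1 beta plus TNF-alpha plus IFN-gamma mixture; protective hits raise ATP signal compared with cytokine alone wells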
HEK293 = test: inhibitors of LMP1-driven NF-kB reporter, dose response, cell-based, HEK293, luciferase, cherry-pick (AID 588343); assay type: functional; details: Homo sapiens
[8] = P. falciparum 3D7-ScDHODH growth inhibitors, dose response, SYBR Green, dry powder samples (AID 1159570); assay type: functional, cell-based;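 also: parasite growth measured after 72 hours of compound exposure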
[9] = P. falciparum Dd2 growth inhibitors, dose response, SYBR Green, cherry-picked samples (AID 1159567); assay type: functional, cell-based
[10] = P. falciparum ATP4 D1247Y mutant growth inhibitors, dose response, NITD609-resistant line, SYBR Green, dry powder (AID 1159571); assay type: functional, cell-based;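 also: parasites synchronized at ring stage by sorbitol before testing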
[11] = P. falciparum Dd2 growth inhibitors, dose response, SYBR Green, dry powder samples (AID 1159566); assay type: functional, cell-based;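 also: potency for growth inhibition with lower SYBR green DNA signal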

Compound: Cc1ccc(-c2ccc(=O)n(Cc3cc(C)ccc3C)n2)cc1
- IC50 [1]: > 47.1 µM (inactive)
- EC50 [2]: > 53 µM (inactive)

Compound: COc1ccc(NC2CCCN(C(=O)c3ccc(OC)cc3OC)C2)cc1 (stereo not given)
- IC50 (Large T antigen): 82.4 µM (active)

Compound: O=C(c1ccco1)n1nc(-c2cccnc2)nc1NCc1ccco1
- IC50 (Prothrombin): 0.134 µM (active)

Compound: O=C(Nc1ccc2oc(-c3cccc4ccccc34)nc2c1)c1nnc[nH]1
- IC50 (SUMO-activating enzyme [3]): 11.8 µM (active)
- IC50 [4]: > 50 µM (inactive)
- IC50 [5]: 2.92 µM (active)
- IC50 (SUMO-activating enzyme [6]): 3.45 µM (active)

Compound: Cc1ccc(C)c(SCC(=O)OCC(=O)Nc2ccc(S(=O)(=O)N3CCOCC3)cc2)c1
- IC50 (Prothrombin): 5.72 µM (active)

Compound: O=C1C(NS(=O)(=O)c2ccccc2)=C(N2CCN(c3ccc(F)cc3)CC2)C(=O)c2ccccc21
- IC50 (Nonstructural protein 1): 18.1 µM (active)

Compound: CC(=O)N1CCN(c2ccc(NCc3ccc(-c4ccc(Br)cc4)o3)cc2)CC1
- IC50 (Nonstructural protein 1): 41.1 µM (active)

Compound: S=P1(N2CCCCC2)Oc2ccc3ccccc3c2-c2c(ccc3ccccc23)O1
- GI50 (P388/ADR): > 100 µM (inactive)
- GI50 (SN12K1): > 61.8 µM (inactive)
- GI50 (P388): 48.4 µM (inactive)

Compound: C(=C/c1nc2ccccc2o1)/c1ccc2c(c1)OCO2
- GI50 (P388/ADR): 3.99 µM (inactive)
- GI50 (SN12K1): 5.62 µM (inactive)
- GI50 (P388): 3.52 µM (inactive)

Compound: COc1ccc(OCC(C)(C)O)cc1
- GI50 (P388/ADR): 1.31 µM (inactive)
- GI50 (SN12K1): > 100 µM (inactive)
- GI50 (P388): 38.2 µM (inactive)

Compound: O=S1(=O)CS(=O)(=O)OCCO1
- GI50 (P388/ADR): 7.36 µM (inactive)
- GI50 (SN12K1): 28.6 µM (inactive)
- GI50 (P388): 10.8 µM (inactive)

Compound: Cc1ccc(N2Cc3c(ccc4ccccc34)OP2(=O)Oc2ccc(Cl)c(C)c2)cc1 (stereo not given)
- GI50 (P388/ADR): 7.45 µM (inactive)
- GI50 (SN12K1): > 77.8 µM (inactive)
- GI50 (P388): 4.75 µM (inactive)

Compound: CCOC(=O)c1sc(N/N=C/c2ccccc2)nc1C
- IC50 [7]: 40.4 µM (active)

Compound: COc1ccc(Cc2nnc(N/N=C/c3ccc(O)cc3)nc2O)cc1OC
- AC50 (INS1): 0.946 µM (active)
- IC50 (Nonstructural protein 1): 1.19 µM (active)
- AC50 (HEK293): 4.42 µM (active)

Compound: COc1cc(/C=N/NC(=O)c2ccc3c(c2)OCCO3)cc(Cl)c1O
- IC50 (Large T antigen): 22.7 µM (active)

Compound: COc1ccc2c3c(n(C)c2c1)[C@@H](CO)N(C(=O)c1ccccc1)CC31CCN(C(=O)c2ccccc2)CC1
- AC50 [8]: 2.28 µM (active)
- AC50 [9]: 2.56 µM (active)
- AC50 [10]: 1.55 µM (active)
- AC50 [11]: 1.04 µM (active)
